Ki data for 33 molecules are collected here from patent US7109207B2, “Spirosubstituted piperidines as selective melanin concentrating hormone receptor antagonists for the treatment of obesity” (Schering Corporation, priority 2002, dated 2006).

Molecules are shown by their SMILES. Like-named read-outs stand apart in the source and are kept apart here.

This experiment concerns the target T1, MCH receptor (Homo sapiens, UniProt Q99705).
T1 construct: expressed in transfected cells; host or cells: CHO cells
Briefly: MCH Receptor Binding Assay ([125I]-MCH, SPA, membranes from CHO cells expressing the MCH receptor). To be noted: CHO cell membranes. The protocol:
MCH Receptor Binding Assay:
Membranes from CHO cells expressing the MCH receptor were prepared by lysing cells with 5 mM HEPES for 15 min at 4C. Cell lysates were centrifuged ([…], 15 min) and the pellet was resuspended in 5 mM HEPES. For each 96-well plate (Microlite, Dynex Technologies), 1 mg of cell membranes were incubated with 10 mg of wheat germ agglutinin SPA beads (Amersham) for 5 min at 4 C in a volume of 10 ml of binding buffer (25 mM HEPES, 10 mM MGCl2, 10 mM NaCl, 5 mM MnCl2, 0.1% BSA). The membrane/bead mixture was centrifuged (1500×g, 3.5 min), the supernatant was aspirated, and the pellet was resuspended in 10 ml binding buffer. The centrifugation, aspiration and resuspension were then repeated. The membrane/bead mixture (100 μl) was then added to 96-well plates containing 50 μof 500 pM [^125I]-MCH (NEN) and […] of the appropriate concentration of compound (4× the desired final concentration). Nonspecific binding was determined by including 1 μM MCH in the binding reaction. The binding reaction was incubated at room temperature for 2 h. Plates were then analyzed in a TOPCOUNT microplate scintillation counter (Packard). Data was analyzed and Ki values were determined using GraphPad Prism.

T1 sequence (Q99705 whole entry): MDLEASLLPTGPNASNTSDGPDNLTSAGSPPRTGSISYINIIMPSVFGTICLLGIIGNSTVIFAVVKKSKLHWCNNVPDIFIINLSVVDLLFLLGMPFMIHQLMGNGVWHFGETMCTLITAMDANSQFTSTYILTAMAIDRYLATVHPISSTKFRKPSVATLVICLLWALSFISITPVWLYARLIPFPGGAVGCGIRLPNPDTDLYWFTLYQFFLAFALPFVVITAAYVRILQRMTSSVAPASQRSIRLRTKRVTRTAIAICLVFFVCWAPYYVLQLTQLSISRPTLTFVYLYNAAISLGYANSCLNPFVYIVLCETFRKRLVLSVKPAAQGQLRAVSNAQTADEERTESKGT

Consider `N#Cc1cccc(-c2ccc3c(c2)CCN(CC(=O)Nc2cc(Cl)cc(Cl)c2)C32CCN(CC3CC3)CC2)c1` [Compound 11c], for which, where the note is “read-out: Activity (Ki class)”, the inhibition constant Ki (as a rule, a measure of affinity in units of concentration, obtained from inhibition or displacement) is < 30 nM.

On to `N#Cc1cccc(-c2ccc3c(c2)CCN(Cc2nc4cc(F)c(Cl)cc4[nH]2)C32CCNCC2)c1` [Compound 12e], for which the Ki (read-out: Activity (Ki class)) is > 100 nM. As to `N#Cc1cccc(-c2ccc3c(c2)CCN(Cc2nc4cc(Cl)c(Cl)cc4[nH]2)C32CCNCC2)c1` [Compound 12d], for the setting “read-out: Activity (Ki class)”, the Ki is > 100 nM. In the case of `CS(=O)(=O)N1CCC2(CC1)c1ccc(-c3cccc(C#N)c3)cc1CCN2CC(=O)Nc1cc(Cl)cc(Cl)c1` [Compound 30c], for the setting “read-out: Activity (Ki class)”, the Ki is > 100 nM. `CC(=O)N1CCC2(CC1)c1ccc(-c3cccc(C#N)c3)cc1CCN2CC(=O)Nc1cc(Cl)cc(Cl)c1` [Compound 30b]: the Ki (read-out: Activity (Ki class)) is > 100 nM. The same measure, in the same setting: in the case of `N#Cc1cccc(-c2ccc3c(c2)CCN(CC(=O)Nc2cc(Cl)cc(Cl)c2)C32CCN(Cc3ccoc3)CC2)c1` [Compound 11i] it was 30 to 100 nM.

Take `N#Cc1cccc(-c2ccc3c(c2)CCN(Cc2nc4cc(Cl)c(Cl)cc4[nH]2)C32CCN(CC3CC3)CC2)c1` [Compound 12f]: the Ki (read-out: Activity (Ki class)) was > 100 nM.

Regarding `CC(C)N1CCC2(CC1)c1ccc(-c3cccc(C#N)c3)cc1CCN2Cc1nc2ccccc2[nH]1` [Compound 12a], the Ki (read-out: Activity (Ki class)) was > 100 nM.

As for `CC(C)N1CCC2(CC1)c1ccc(-c3cccc(C#N)c3)cc1CCN2CC(=O)Nc1ccc(Cl)c(Cl)c1` [Compound 7e], under “read-out: Activity (Ki class)”, the Ki was > 100 nM.

Regarding `N#Cc1cccc(-c2ccc3c(c2)CCN(CC(=O)Nc2cc(Cl)cc(Cl)c2)C32CCN(C3CCCC3)CC2)c1` [Compound 11d], the inhibitory constant (Ki) (read-out: Activity (Ki class)) was < 30 nM.

Regarding `N#Cc1cccc(-c2ccc3c(c2)CCN(CC(=O)Nc2ccc(F)c(Cl)c2)C32CCN(CC3CC3)CC2)c1` [Compound 8a], the Ki (read-out: Activity (Ki class)) is < 30 nM. Regarding `N#Cc1cccc(-c2ccc3c(c2)CCN(CC(=O)Nc2ccc(Cl)c(Cl)c2)C32CCN(CC3CC3)CC2)c1` [Compound 8h], the inhibition constant Ki (read-out: Activity (Ki class)) is > 100 nM.

In the case of `N#Cc1cccc(-c2ccc3c(c2)CCN(CC(=O)Nc2cc(Cl)cc(Cl)c2)C32CCN(C3CCOCC3)CC2)c1` [Compound 11h], the inhibition constant (Ki) (read-out: Activity (Ki class)) is < 30 nM.

On to `N#Cc1cccc(-c2ccc3c(c2)CCN(CC(=O)Nc2cccc(Cl)c2)C32CCN(CC3CC3)CC2)c1` [Compound 8c], for which, for the setting “read-out: Activity (Ki class)”, the inhibition constant (Ki) is 30 to 100 nM. Regarding `CC(C)N1CCC2(CC1)c1ccc(-c3cccc(C#N)c3)cc1CCN2CC(=O)Nc1ccc(Cl)c(C(F)(F)F)c1` [Compound 7d], the inhibition constant Ki (read-out: Activity (Ki class)) was > 100 nM. Take `N#Cc1cccc(-c2ccc3c(c2)CCN(CC(=O)Nc2cc(F)cc(C(F)(F)F)c2)C32CCN(CC3CC3)CC2)c1` [Compound 8f]: for the setting “read-out: Activity (Ki class)”, the Ki fell in the range of 30 to 100 nM.

For `N#Cc1cccc(-c2ccc3c(c2)CCN(CC(=O)Nc2ccc(F)c(C(F)(F)F)c2)C32CCN(CC3CC3)CC2)c1` [Compound 8e], for the setting “read-out: Activity (Ki class)”, the Ki was < 30 nM. The same measure, in the same setting: in the case of `CN1CCC2(CC1)c1ccc(-c3cccc(C#N)c3)cc1CCN2CC(=O)Nc1cc(Cl)cc(Cl)c1` [Compound 11f] it was 30 to 100 nM; in that of `N#Cc1cccc(-c2ccc3c(c2)CCN(CC(=O)Nc2cc(Cl)cc(Cl)c2)C32CCN(CCO)CC2)c1` [Compound 11e], 30 to 100 nM; in that of `N#Cc1cccc(-c2ccc3c(c2)CCN(CC(=O)Nc2cc(F)cc(F)c2)C32CCN(CC3CC3)CC2)c1` [Compound 8g], 30 to 100 nM.

As to `N#Cc1cccc(-c2ccc3c(c2)CCN(CC(=O)Nc2cc(Cl)cc(Cl)c2)C32CCN(C3CCC3)CC2)c1` [Compound 11b], the Ki (read-out: Activity (Ki class)) is < 30 nM. As to `N#Cc1cccc(-c2ccc3c(c2)CCN(CC(=O)Nc2cc(Cl)cc(Cl)c2)C32CCN(C3CCSC3)CC2)c1` (stereo not shown) [Compound 11j], where the note is “read-out: Activity (Ki class)”, the Ki fell in the range of 30 to 100 nM. On the same count and under the same terms, with `CC(C)(C)OC(=O)N1CCC2(CC1)c1ccc(-c3cccc(C#N)c3)cc1CCN2CC(=O)Nc1cc(Cl)cc(Cl)c1` [Compound 30a] the figure was > 100 nM.

For the molecule `N#Cc1cccc(-c2ccc3c(c2)CCN(CC(=O)Nc2ccc(F)c(F)c2)C32CCN(CC3CC3)CC2)c1` [Compound 8d], for the setting “read-out: Activity (Ki class)”, the inhibition constant (Ki) was 30 to 100 nM. The same measure, in the same setting: in the case of `N#Cc1cccc(-c2ccc3c(c2)CCN(CC(=O)Nc2cc(Cl)cc(Cl)c2)C32CCNCC2)c1` [Compound 10c] it was 30 to 100 nM; in that of `N#Cc1cccc(-c2ccc3c(c2)CCN(CC(=O)Nc2ccc(Cl)c(C(F)(F)F)c2)C32CCN(CC3CC3)CC2)c1` [Compound 8i], > 100 nM; in that of `CC(C)N1CCC2(CC1)c1ccc(-c3cccc(C#N)c3)cc1CCN2CC(=O)Nc1cc(F)cc(F)c1` [Compound 7c], 30 to 100 nM. Same read-out and setting: with `CC(C)N1CCC2(CC1)c1ccc(-c3cccc(C#N)c3)cc1CCN2CC(=O)Nc1cc(Cl)cc(Cl)c1` [Compound 7a] the figure was < 30 nM. Still for that read-out and setting: in the case of `CC(C)N1CCC2(CC1)c1ccc(-c3cccc(C#N)c3)cc1CCN2CC(=O)Nc1ccc(F)c(Cl)c1` [Compound 7b] it was 30 to 100 nM; in that of `N#Cc1cccc(-c2ccc3c(c2)CCN(CC(=O)Nc2ccc(Cl)cc2)C32CCN(CC3CC3)CC2)c1` [Compound 8b], > 100 nM. Regarding `CN(C)S(=O)(=O)N1CCC2(CC1)c1ccc(-c3cccc(C#N)c3)cc1CCN2CC(=O)Nc1cc(Cl)cc(Cl)c1` [Compound 30d], where the note is “read-out: Activity (Ki class)”, the Ki is > 100 nM. As to `N#Cc1cccc(-c2ccc3c(c2)CCN(CC(=O)Nc2cc(Cl)cc(Cl)c2)C32CCN(C3CCCCCC3)CC2)c1` [Compound 11a], the Ki is, setting by setting: (read-out: Activity (Ki class)) < 30 nM; (read-out: Ki value) 11 nM. With `CCN1CCC2(CC1)c1ccc(-c3cccc(C#N)c3)cc1CCN2CC(=O)Nc1cc(Cl)cc(Cl)c1` [Compound 11g], the inhibition constant Ki (read-out: Activity (Ki class)) was in the range of 30 to 100 nM.
